Assay results published in patent US10738080B2, “Inhibitors of beta integrin-G protein alpha subunit binding interactions” (priority 2010, dated 2020).
Where two headings read alike, the source gives them in different places.

Experiments:
human platelets = tested on: human platelets
Procedure: (§1) Platelet aggregation assays were carried out as follows: Platelet aggregation and secretion was measured in a turbidometric platelet aggregometer (Chronolog) at 37° C. with stirring (1000 rpm). Washed platelets (3×10^8/ml) in modified Tyrode's buffer were stimulated with thrombin (Enzyme Research Laboratories). For talin knockdown platelet aggregation assay stimulated with manganese and ADP, manganese and ADP was mixed prior to experiment to achieve final concentration of 1 mM manganese and 5 μM ADP in reaction tube. Aggregation traces shown are representative of at least three independent experiments.
Platelet aggregation assays were performed with myristoylated peptide mP5, myristoylated peptide of SEQ: ID NO: 87, or their respective scarmbled control peptides, as essentially described herein. Briefly, washed human platelets were preincubated with 25, 50, 100, 250, or 500 μM peptide solubilized in DMSO.

platelets = conditions: ATP secretion
Procedure: as §1

mouse platelets = conditions: 30 μM peptide
Procedure: as §1

Myr-EEERA [mP5]
inhibited: platelet aggregation induced by thrombin (human platelets) | second wave of platelet aggregation (human platelets) | platelets aggregation induced by thrombin (human platelets; 30 μM peptide, human platelets) | platelets aggregation induced by thrombin (human platelets; 200 μM peptide) | platelet granule secretion (platelets) | platelets aggregation induced by thrombin (mouse platelets)
